Laboratory results as given in PMC10077475, “DG9-conjugated morpholino rescues phenotype in SMA mice by reaching the CNS via a subcutaneous administration” (JCI Insight, 2023).

Test system: severe SMA mouse model (Taiwanese model)
Assay: Survival of severe SMA mice after a single subcutaneous injection at PD0
Format: in vivo
Details: single subcutaneous injection at PD0, 40 mg/kg, until humane endpoint
Experimental: To examine whether DG9 peptide can increase the efficacy of PMO, we conjugated it to an 18-mer PMO with a sequence identical to nusinersen. The DG9-PMO, unconjugated PMO, and MOE were injected into SMA model mice [Cg-Tg(SMN2)2HungSmn1^tm1Hung/J; abbreviated as Smn^–/– SMN2^Tg/Tg; commonly called the Taiwanese model]. We also used an arginine-rich peptide (R6G) that is currently being explored in clinical trials for Duchenne muscular dystrophy (DMD) and used in preclinical studies for Hutchinson-Gilford progeria syndrome ([37], [38]). The benchmark control peptide R6G was conjugated to the same PMO sequence used in our study (R6G-PMO). […] We subcutaneously injected mice with the AOs or saline (nontreated, NT) administered at postnatal day 0 (PD0) at 2 doses: 40 mg/kg or 80 mg/kg. In our preliminary experiments, we also tested lower doses of 10 and 20 mg/kg (data not shown). […] The survival was recorded until a humane endpoint was reached. For the 40 mg/kg doses, the median survival was 12 days for unconjugated PMO, 15.5 days for MOE, and 17 days for R6G-PMO, which was increased to 58 days for DG9-PMO treatment (Figure 1A and Supplemental Figure 1A; supplemental material available online with this article; https://doi.org/10.1172/jci.insight.160516DS1). The median survival increased to 57 days for unconjugated PMO, 64 days for MOE, and 121 days for DG9-PMO at the higher dose of 80 mg/kg (Figure 1A). […] In spite of no statistical difference between DG9-PMO and MOE groups, the median survival of DG9-PMO still was higher than MOE, as only 1 mouse was alive until PD200 following a 40 mg/kg injection of MOE.
SMA-transgenic mice [JAX stock 005058 FVB.Cg-Tg(SMN2)2HungSmn1^tm1Hung/J] (Smn^–/–; SMN2^Tg/Tg), also known as Taiwanese mice, were purchased from Jackson Laboratory. Heterozygous mice for Smn1 (Smn1^+/–; SMN2^–/–) generated by us were crossed with mice homozygous for Smn1 Smn^–/–; SMN2^Tg/Tg generated by us to obtain the SMA mice (Smn^–/–; SMN2^Tg/–) or the heterozygous healthy control (Smn1^+/–; SMN2^Tg/–). The SMA mice display a severe overt phenotype similar to patients with SMA type I. The mice were genotyped using a PCR assay on genomic DNA isolated from tail biopsies using the Phire Tissue Direct PCR Kit (Thermo Fisher Scientific) as per the manufacturer’s instructions. The DNA was amplified using the primers described in Supplemental Table 1 using the condition Mouse Smn: 98°C/5 minutes → 98°C/5 s 58°C/10 s 72°C/10 s × 35 cycles → 72°C/1 minute.
Injections were carried out using a 30-gauge Hamilton syringe. SMA mice identified following genotyping were randomly assigned to a treatment group. The researcher injecting mice was blinded to the treatment. SMA neonates were subcutaneously injected with 40 or 80 mg/kg of AOs at PD0, while NT and heterozygous control mice were injected with saline (n = 10–49) per group. Tissues including the quadriceps muscle, liver, kidney, spleen, diaphragm, intercostal muscle, heart, brain, and spinal cord were collected and snap-frozen in dry ice– cooled isopentane, then subsequently stored at –80°C.

RRRRRRG [R6G-PMO]
median survival: 17 days
